Measured values as given in US20050245463A1, “Novel antiretroviral sulfolipids extracted from spirulinae, method for obtaining same, compositions containing same and use thereof as inhibitors of the hiv virus reverse transcriptase” (priority 2002, published 2005).
Values after ≈ are worked out from the molar mass of the structure shown.

How the values were obtained:
Type in all cases: biochemical
[1] = target: T1, RNase-H of HIV-1 reverse transcriptase (Human immunodeficiency virus type 1 group M subtype B, UniProt P03366); assay: Inhibition of the RNase-H of HIV-1 reverse transcriptase; conditions: for RNase-H % of initial enzymatic activity: 100 μM of each sulfolipid molecular species, residual activity as % of control without inhibitor; for inhibition of the RNase-H of HIV-1 reverse transcriptase (in words): ranking among molecular species
T1 construct: The HIV-1 and HIV-2 reverse transcriptases are the hetero-dimers p.66/p.5 l and p.68/p.55, respectively; made in house; host or cells: E. coli
Description: (§1) The reverse transcriptases used in this study are the recombinant enzymes expressed in E. coli and purified from the bacterial extracts (16). The HIV-1 reverse transcriptase expression plasmid originates from the proviral isolate BH-10 (17), while the HIV-2 reverse transcriptase expression plasmid originates from the isolate pRod (18). The HIV-1 and HIV-2 reverse transcriptases are the hetero-dimers p.66/p.5 l and p.68/p.55, respectively.
(§2) The enzymatic tests are performed by the method of Loya et al. (19). The DNA polymerase activity is measured by monitoring the incorporation of […] into the product insoluble in trichloroacetic acid (TCA), in the presence of different concentrations of sulfolipids. The RNase-H activity is measured by measuring the delivery of the TCA-soluble product from the synthetic substrate [^3H]poly(rA)n.poly (dT)n. This substrate is prepared by the procedure of Hizi et al. (1991) (20). In all the inhibition experiments, the enzymes are preincubated for 5 min at 30° C. in the absence or presence of inhibitors at different concentrations. The enzymatic reactions are started by the addition of appropriate substrate at 37° C. for 30 min.
(§3) The residual enzymatic activity is calculated relative to the initial rates of the (linear) reaction observed in the absence of sulfolipids.
(b) One unit of RNase-H activity is the amount of enzyme which catalyzes the hydrolysis of one pmol of AMP at 37° C. over 30 min under standard test conditions.

[2] = target: T2, DNA polymerase of HIV-1 reverse transcriptase (Human immunodeficiency virus type 1 group M subtype B, UniProt P03366); assay: Inhibition of the DNA polymerase of HIV-1 reverse transcriptase; conditions: for IC50: concentration that inhibits 50% of the initial enzymatic activity; for IC90: concentration that inhibits 90% of the initial enzymatic activity; for inhibitory activity towards the DNA polymerase of HIV-1 reverse transcriptase (in words): ranking among molecular species
T2 construct: The HIV-1 and HIV-2 reverse transcriptases are the hetero-dimers p.66/p.5 l and p.68/p.55, respectively; made in house; host or cells: E. coli
Description: as §1, §2, §3
The concentration of inhibitors that leads to 50% inhibition of the enzymatic activities (IC50) is calculated from the curves of inhibition as a function of inhibitor (sulfolipid) concentration.
(§4) (a) One unit of DNA polymerase activity is the amount of enzyme which catalyzes the incorporation of one pmol of dNTP into the DNA product at 37° C. over 30 min under standard test conditions.

[3] = target: T3, DNA polymerase activity of HIV-2 reverse transcriptase (Human immunodeficiency virus type 2 subtype A, UniProt P04584); assay: DNA polymerase activity of HIV-2 reverse transcriptase
T3 construct: The HIV-1 and HIV-2 reverse transcriptases are the hetero-dimers p.66/p.5 l and p.68/p.55, respectively; made in house; host or cells: E. coli
T3 sequence (P04584 613-1051): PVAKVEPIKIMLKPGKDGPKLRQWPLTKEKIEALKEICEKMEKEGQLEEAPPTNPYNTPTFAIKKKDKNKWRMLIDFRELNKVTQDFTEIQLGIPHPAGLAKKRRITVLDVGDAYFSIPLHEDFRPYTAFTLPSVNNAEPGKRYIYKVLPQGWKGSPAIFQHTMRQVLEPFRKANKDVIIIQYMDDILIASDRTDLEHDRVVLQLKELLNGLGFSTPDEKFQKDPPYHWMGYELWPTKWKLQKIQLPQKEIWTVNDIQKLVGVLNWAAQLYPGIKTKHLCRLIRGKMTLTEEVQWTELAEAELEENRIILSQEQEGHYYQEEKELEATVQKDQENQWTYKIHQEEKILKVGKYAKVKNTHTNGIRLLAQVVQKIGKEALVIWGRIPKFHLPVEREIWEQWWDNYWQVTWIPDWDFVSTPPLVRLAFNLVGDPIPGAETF
T3 sequence (P04584 613-1171): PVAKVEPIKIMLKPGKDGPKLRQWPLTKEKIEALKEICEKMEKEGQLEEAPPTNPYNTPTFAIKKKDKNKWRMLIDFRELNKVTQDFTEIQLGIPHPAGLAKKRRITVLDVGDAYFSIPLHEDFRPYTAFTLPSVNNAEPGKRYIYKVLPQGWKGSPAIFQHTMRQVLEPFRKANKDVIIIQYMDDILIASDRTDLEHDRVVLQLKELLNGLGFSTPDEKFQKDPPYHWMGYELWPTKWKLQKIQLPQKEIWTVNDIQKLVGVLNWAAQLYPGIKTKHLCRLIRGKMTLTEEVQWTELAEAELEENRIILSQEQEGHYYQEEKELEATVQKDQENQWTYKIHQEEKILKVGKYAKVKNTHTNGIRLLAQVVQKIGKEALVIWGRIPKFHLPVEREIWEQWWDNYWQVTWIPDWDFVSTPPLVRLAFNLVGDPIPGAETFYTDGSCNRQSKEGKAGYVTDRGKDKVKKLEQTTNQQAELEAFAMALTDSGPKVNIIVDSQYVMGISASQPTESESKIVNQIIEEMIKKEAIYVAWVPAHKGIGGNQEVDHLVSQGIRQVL
Description: as §1, §2, §3, §4

SMILES: CCCCCCCCCCCCCCCC(=O)OCC(COC1OC(CS(=O)(=O)O)C(O)C(O)C1O)OC(=O)CCCCCCCCCCCCCCC (stereo not shown) [C16:0/C16:0]
- RNase-H % of initial enzymatic activity [1]: 47 + 4%
- inhibition of the RNase-H of HIV-1 reverse transcriptase (in words) [1]: highest activities
- IC50 [2]: 133 µM
- IC90 [2]: 452 µg/mL (≈ 568 µM)

SMILES: CCCCCCC=CCCCCCCCC(=O)OCC(COC1OC(CS(=O)(=O)O)C(O)C(O)C1O)OC(=O)CCCCCCCCCCCCCCC (stereo not shown) [C16:1/C16:0]
- RNase-H % of initial enzymatic activity [1]: 42 + 3%
- inhibition of the RNase-H of HIV-1 reverse transcriptase (in words) [1]: highest activities
- IC50 [2]: 110 µM
- IC90 [2]: 302 µg/mL (≈ 381 µM)
- Residual enzymatic activity (%) ([3]; 10.2 + 0.5 μg/ml): 100 + 1%
- Residual enzymatic activity (%) ([3]; 25.0 + 0.6 μg/ml): 96 + 1%
- Residual enzymatic activity (%) ([3]; 48.9 + 0.9 μg/ml): 69 + 1%
- Residual enzymatic activity (%) ([3]; 97.5 + 1.5 μg/ml): 58 + 2%
- Residual enzymatic activity (%) ([3]; 108.0 + 3.0 μg/ml): 50 + 1%
- Residual enzymatic activity (%) ([3]; 198.5 + 3.4 μg/ml): 24 + 2%

SMILES: CCCCCCCCC=CCCCCCCCC(=O)OCC(COC1OC(CS(=O)(=O)O)C(O)C(O)C1O)OC(=O)CCCCCCCCCCCCCCC (stereo not shown) [C18:1/C16:0]
- RNase-H % of initial enzymatic activity [1]: 64 + 6%
- inhibition of the RNase-H of HIV-1 reverse transcriptase (in words) [1]: highest activities
- IC50 [2]: 29.1 µM
- IC90 [2]: 73.6 µg/mL (≈ 89.6 µM)
- inhibitory activity towards the DNA polymerase of HIV-1 reverse transcriptase (in words) [2]: highest activities
- inhibitory activity towards the DNA polymerase activity of HIV-2 reverse transcriptase (in words) [3]: have an inhibitory activity
- Residual enzymatic activity (%) ([3]; 4.8 + 0.9 μg/ml): 100 + 1%
- Residual enzymatic activity (%) ([3]; 9.6 + 0.9 μg/ml): 93 + 2%
- Residual enzymatic activity (%) ([3]; 19.1 + 0.9 μg/ml): 74 + 2%
- Residual enzymatic activity (%) ([3]; 33.5 + 2.0 μg/ml): 50 + 1%
- Residual enzymatic activity (%) ([3]; 38.3 + 1.8 μg/ml): 42 + 2%
- Residual enzymatic activity (%) ([3]; 76.5 + 2.0 μg/ml): 24 + 2%

SMILES: CCCCCCCCC=CCCCCCCCC(=O)OCC(COC1OC(CS(=O)(=O)O)C(O)C(O)C1O)OC(=O)CCCCCCCC=CCCCCCCCC (stereo not shown) [C18:1/C18:1]
- RNase-H % of initial enzymatic activity [1]: 60 + 2%
- inhibition of the RNase-H of HIV-1 reverse transcriptase (in words) [1]: highest activities
- IC50 [2]: 23.7 µM
- IC90 [2]: 68.3 µg/mL (≈ 80.6 µM)
- inhibitory activity towards the DNA polymerase of HIV-1 reverse transcriptase (in words) [2]: highest activities
- inhibitory activity towards the DNA polymerase activity of HIV-2 reverse transcriptase (in words) [3]: the highest
- Residual enzymatic activity (%) ([3]; 4.0 + 0.5 μg/ml): 100 + 1%
- Residual enzymatic activity (%) ([3]; 8.0 + 0.6 μg/ml): 92 + 1%
- Residual enzymatic activity (%) ([3]; 16.0 + 0.7 μg/ml): 70 + 2%
- Residual enzymatic activity (%) ([3]; 26.1 + 1.8 μg/ml): 50 + 1%
- Residual enzymatic activity (%) ([3]; 36.0 + 1.0 μg/ml): 35 + 1%
- Residual enzymatic activity (%) ([3]; 71.9 + 1.0 μg/ml): 22 + 2%

SMILES: CCCCCC=CCC=CCCCCCCCC(=O)OC(COC(=O)CCCCCCCC=CCCCCCCCC)COC1OC(CS(=O)(=O)O)C(O)C(O)C1O (stereo not shown) [C18:1/C18:2]
- RNase-H % of initial enzymatic activity [1]: 100%
- IC50 [2]: 248 µM
- IC90 [2]: 628 µg/mL (≈ 743 µM)

SMILES: CCCCCC=CCC=CCCCCCCCC(=O)OCC(COC1OC(CS(=O)(=O)O)C(O)C(O)C1O)OC(=O)CCCCCCCCCCCCCCC (stereo not shown) [C18:2/C16:0]
- RNase-H % of initial enzymatic activity [1]: 100%
- IC50 [2]: 92 µM
- IC90 [2]: 281 µg/mL (≈ 344 µM)
- inhibitory activity towards the DNA polymerase of HIV-1 reverse transcriptase (in words) [2]: highest activities
- inhibitory activity towards the DNA polymerase activity of HIV-2 reverse transcriptase (in words) [3]: have an inhibitory activity
- Residual enzymatic activity (%) ([3]; 9.5 + 0.9 μg/ml): 100 + 1%
- Residual enzymatic activity (%) ([3]; 23.8 + 0.9 μg/ml): 96 + 2%
- Residual enzymatic activity (%) ([3]; 47.7 + 1.8 μg/ml): 70 + 2%
- Residual enzymatic activity (%) ([3]; 95.4 + 2.0 μg/ml): 56 + 2%
- Residual enzymatic activity (%) ([3]; 105.0 + 5.0 μg/ml): 50 + 1%
- Residual enzymatic activity (%) ([3]; 190.8 + 4.8 μg/ml): 25 + 2%

SMILES: CCCCCC=CCC=CCCCCCCCC(=O)OCC(COC1OC(CS(=O)(=O)O)C(O)C(O)C1O)OC(=O)CCCCCCCC=CCCCCCCCC (stereo not shown) [C18:2/C18:1]
- RNase-H % of initial enzymatic activity [1]: 100%
- IC50 [2]: 297 µM
- IC90 [2]: 753 µg/mL (≈ 891 µM)

SMILES: CCCCCC=CCC=CCCCCCCCC(=O)OCC(COC1OC(CS(=O)(=O)O)C(O)C(O)C1O)OC(=O)CCCCCCCC=CCC=CCCCCC (stereo not shown) [C18:2/C18:2]
- RNase-H % of initial enzymatic activity [1]: 100%
- IC50 [2]: 331 µM
- IC90 [2]: 840 µg/mL (≈ 996 µM)

SMILES: CCCCCC=CCC=CCC=CCCCCC(=O)OCC(COC1OC(CS(=O)(=O)O)C(O)C(O)C1O)OC(=O)CCCCCCCCCCCCCCC (stereo not shown) [γC18:3/C16:0]
- RNase-H % of initial enzymatic activity [1]: 100%
- IC50 [2]: 218 µM
- IC90 [2]: 533 µg/mL (≈ 652 µM)
